Measurements reported in US5500444A, “Cardioprotective tocopherol analogs” (Hoechst Marion Roussel, Inc., priority 1994, dated 1996).
Values joined by “and” are separate entries in the source; they are usually repeats but may differ in a detail not shown here. Equal values may be shown once. Read-outs that look alike come from different tables or passages of the source.

Key:
human α1 Pi = test: Protection of α1 Pi from leukocyte-mediated inactivation (residual elastase inhibitory capacity); format: cell-based; conditions: for Relative PC50: concentration to protect 50% of elastase inhibitory capacity of α1 Pi, mean ± S.D. (n = 3) for Compound A; for inactivation of α1 Pi: zymosan-stimulated human leukocytes
Text: Stimulated human leukocytes release radicals and other oxygen metabolites, which, during inflammation, act as microbicidal agents. At the same time, they release proteolytic enzymes, such as elastase, which are also microbicidal but potentially threaten the connective tissue of the host. An endogenous α1 -proteinase inhibitor (α1 Pi) normally protects the host tissue from proteolytic digestion. α1 Pi is, however, inactivated by the leukocyte-derived oxidants. The inactivation of α1 Pi is antagonized by the disclosed radical scavengers 2-(3,4-dihydro-6-hydroxy-2,5,7,8-tetramethyl-2H-1-benzopyran-2-yl)-N,N,N-trimethylethanammonium, 4-methylbenzylsulfonate (Compound A) and 3,4-dihydro-2-(2-dimethylaminoethyl)-2,5,7,8-tetramethyl-2H-1-benzopyran-6-ol (Compound B). The concentration needed to protect 50% of the elastase inhibitory capacity of α1 Pi (PC50) depends on the amount of stimulated leukocytes present.
The procedure described by Skosey and Chow was followed (see Skosey, J. L. and Chow, D. C. (1985) In Handbook of Methods for Oxygen Radical Research (Greenwald, R. A., ed.) pp. 413-416, CRC Press, Boca Raton). In short, human α1 Pi was incubated with zymosan-stimulated human peripheral-blood leukocytes in the absence or presence of the scavengers. The amount of α1 Pi protected from oxidative inactivation was determined by its residual elastase inhibitory capacity.

[1] = superoxide radicals generated by xanthine oxidase/xanthine, detected by reduction of nitro blue tetrazolium; format: biochemical; conditions: for IC50: read-out: IC50 (superoxide radical scavenging); for superoxide radicals scavenged: at 200 μM
Description: In another evaluation, superoxide radicals were generated by 4 mU of xanthine oxidase in the presence of 0.1 mM xanthine and detected by reduction of 40 μM nitro blue tetrazolium to the diformazan dye in a spectrophotometric assay as described by C. Beauchamp and I. Fridovich, (1971) Analyt. Biochem. 44, 276-287. 30 U of superoxide dismutase inhibited this reduction by 90% which, therefore, was due to superoxide radicals. […] Trolox is a commercial antioxidant and is a known potent superoxide radical scavenger. For comparison, D,L-penicillamine and N-2-mercaptopropionyl glycine at 200 μM scavenged only 14% of the superoxide radicals. Neither of the scavengers inhibited xanthine oxidase, when tested at 200 μM.

[2] = Affinity for cardiac tissue (radioactivity in heart and blood after intravenous 14C-labelled compound); format: in vivo, rats; conditions: rat, 0.91 mg base/kg i.v.
Description: Following the procedure described in Example 9, but using ^14 C-methyl p-toluenesulfonate in place of "cold material", ^14 C-labelled 2-(3,4-dihydro-2,5,7,8-tetramethyl-6-methylcarbonyloxy-2H-1-benzopyranan-2-yl)ethyl-N,N,N-tri-^14 C-methylammonium p-toluenesulfonate was synthesized. The preparation was diluted with "cold material" to 11.74 μCi/mg base.
24 rats were given 0.91 mg base/kg by intravenous route (by canula into the jugular vein). The animals were sacrificed in groups of 3 at the time periods indicated in Table I. Immediately before sacrifice a 0.5 ml blood sample was taken from an indwelling catheter in the carotid artery. The hearts were removed, blotted and weighed. The samples of tissue and blood were solubiized with Luma Solve (a quaternary ammonium hydroxide preparation) and radioactivity was determined in a scintillation counter.

[3] = tested on: canine myocardial reperfusion injury; conditions: Lucchesi and coworkers; cited from earlier work
[4] = autoxidation of 1-epinephrine (superoxide radical reduction, Misra and Fridovich); format: biochemical; conditions: 1-epinephrine 1×10^-4 M, EDTA 1×10^-4 M, 30° C.; read-out: 50% inhibition of the autoxidation rate (ID50)
Description: 2-(3,4-dihydro-6-hydroxy-2,5,7,8-tetramethyl-2H-1-benzopyran-2-yl)ethyl-N,N,N-trimethylammonium bromide, described in Example 1, was evaluated for its ability to reduce superoxide radicals in an assay described by H. P. Misra and J. Fridovich, 1972, J. Biol. Chem. 247, 3170-5. In this assay, the rate of autoxidation of 1-epinephrine (1×10^-4 M) in the presence of EDTA (1×10^-4 M) at 30° C. is followed spectrophotometrically following the increase of absorbance at 480 mn.
Misra and Fridovich report that bovine superoxide dismutase gave 50% inhibition at 46mg per ml.

hyperlipidemic rabbits = conditions: Carew et al., 1987; cited from earlier work
[5] = tested on: ligation-induced infarcted and reperfused rats; test: Cardioprotective effects in ligation-induced infarcted and reperfused rats; format: in vivo; conditions: treated group, 10 mg/kg/h i.v., individual rats No. 1-10
Description: 2-(3,4-Dihydro-2,5,7,8-tetramethyl-6-methylcarbonyloxy-2H-1-benzopyran-2-yl)ethyl-N,N,N-trimethylammonium bromide was evaluated in ligation-induced infarcted and reperfused rats as follows. One of two groups of rats was infused intravenously with a solution of test compound in saline at a rate of 2.3 ml/h (10 mg/kg/h). The control group was infused with saline at the same rate. After 10 min of drug infusion, coronary arteries were ligated surgically for 60 min, ligation was loosened to allow reperfusion for 30 min. The ligation was retied and a dye (Evans Blue) was injected. The animals were sacrificed and the heart ventricles were removed and weighed. The unstained tissue was dissected and weighed; this represents the "area at risk", i.e. the area that was deprived of blood supply by ligation. To determine the infarcted area, the tissue was incubated with 2,3,5-triphenyltetrazolium chloride. Infarcted tissue became light colored and could be dissected and weighed. Thus, for each rat that survived the ligation a measurement of "area at risk" and of "infarcted area" was obtained and the ratio was calculated as given in Tables II and III.

[6] = tested on: rats subjected to myocardial ischemia and reperfusion; conditions: Lukovic et al., 1992; cited from earlier work
β2 -receptors = conditions: infarcted reperfused heart, rats; Lukovic et al., 1992; cited from earlier work
[7] = oral absorption and excretion; format: in vivo
[8] = 4 mU xanthine oxidase, 0.1 mM xanthine, 40 μM nitro blue tetrazolium

Compound: Cc1c(C)c2c(c(C)c1O)CCC(C)(CCN(C)C)O2 (centres unmarked) [Compound B, 3,4-dihydro-2-(2-dimethylaminoethyl)-2,5,7,8-tetramethyl-2H-1-benzopyran-6-ol]
- Relative PC50 (human α1 Pi): 7.3 μM/μg leukocyte protein
- inactivation of α1 Pi (human α1 Pi): antagonized
- IC50 [1, 8]: 28 µM

Compound: CC(=O)Oc1c(C)c(C)c2c(c1C)CCC(C)(CC[N+](C)(C)C)O2.Cc1ccc(S(=O)(=O)[O-])cc1 (centres unmarked) [Example 9, 2-(3,4-Dihydro-2,5,7,8-tetramethyl-6-methylcarbonyloxy-2H-1-benzopyran-2-yl)ethyl-N,N,N-trimethylammonium p-toluenesulfonate]
- affinity for heart tissue [2]: marked affinity for heart tissue
- Ratio heart/blood ([2]; 5 min): 3.05 ± 1.46
- µg equiv/g ([2]; 5 min): 1.59 ± 0.22 µg equiv/g
- µg equiv/mL ([2]; 5 min): 0.434 ± 0.351 µg equiv/mL
- Ratio heart/blood ([2]; 15 min): 6.90 ± 8.34
- µg equiv/g ([2]; 15 min): 1.73 ± 0.422 µg equiv/g
- µg equiv/mL ([2]; 15 min): 0.59 ± 0.295 µg equiv/mL
- Ratio heart/blood ([2]; 30 min): 17.33 ± 5.42
- µg equiv/g ([2]; 30 min): 1.91 ± 0.278 µg equiv/g
- µg equiv/mL ([2]; 30 min): 0.124 ± 0.032 µg equiv/mL
- Ratio heart/blood ([2]; 1 hour): 20.09 ± 2.54
- µg equiv/g ([2]; 1 hour): 2.09 ± 0.406 µg equiv/g
- µg equiv/mL ([2]; 1 hour): 0.096 ± 0.008 µg equiv/mL
- Ratio heart/blood ([2]; 2 hours): 21.90 ± 3.56
- µg equiv/g ([2]; 2 hours): 1.4 ± 0.042 µg equiv/g
- µg equiv/mL ([2]; 2 hours): 0.086 ± 0.041 µg equiv/mL
- µg equiv/g ([2]; 4 hours): 1.25 ± 0.248 µg equiv/g
- µg equiv/mL ([2]; 4 hours): 0.054 ± 0.013 µg equiv/mL
- Ratio heart/blood ([2]; 4 hours (maximum), p-toluenesulfonate, 0.91 mg/kg, 240 min): 27.15 ± 4.30 and 27.15
- Ratio heart/blood ([2]; 6 hours): 18.62 ± 2.77
- µg equiv/g ([2]; 6 hours): 0.863 ± 0.067 µg equiv/g
- µg equiv/mL ([2]; 6 hours): 0.048 ± 0.007 µg equiv/mL
- Ratio heart/blood ([2]; 8 hours): 15.12 ± 2.69
- µg equiv/g ([2]; 8 hours): 0.652 ± 0.116 µg equiv/g
- µg equiv/mL ([2]; 8 hours): 0.048 ± 0.012 µg equiv/mL
- concentration of drug in heart tissue ([2]; after 8 h): 0.65 μg equiv/g

Compound: CC(S)C(=O)NCC(=O)O (centres unmarked) [N-2-mercaptopropionyl glycine, reference compound]
- superoxide radicals scavenged [1]: 14%
- canine myocardial reperfusion injury [3]: reduce canine myocardial reperfusion injury

Compound: superoxide dismutase
- inhibition of nitro blue tetrazolium reduction ([1]; 30 U superoxide dismutase, 4 mU xanthine oxidase, 0.1 mM xanthine, 40 μM nitro blue tetrazolium): 90%
- canine myocardial reperfusion injury [3]: reduce canine myocardial reperfusion injury

Compound: CC(C)(S)C(N)C(=O)O (racemic) [D,L-penicillamine, reference compound]
- IC50 [4]: 73 µM
- superoxide radicals scavenged [1]: 14%

Compound: CC(C)(Sc1cc(C(C)(C)C)c(O)c(C(C)(C)C)c1)Sc1cc(C(C)(C)C)c(O)c(C(C)(C)C)c1 [probucol]
- anti-atherosclerotic effect (hyperlipidemic rabbits): marked anti-atherosclerotic effect

Compound: CC(=O)Oc1c(C)c(C)c2c(c1C)CCC(C)(CC[N+](C)(C)C)O2.[Br-] (centres unmarked) [Example 2, 2-(3,4-Dihydro-2,5,7,8-tetramethyl-6-methylcarbonyloxy-2H-1-benzopyran-2-yl)ethyl-N,N,N-trimethylammonium bromide]
- Tissue at risk [5]: 307 mg and 255 mg and 176 mg and 381 mg and 310 mg and 207 mg and 395 mg and 229 mg and 50 mg and 285 mg

Compound: Cc1c(C)c2c(c(C)c1O)CCC(C)(CC[N+](C)(C)C)O2 (centres unmarked) [Compound A, 3,4-Dihydro-6-hydroxy-N,,N,N,2,5,7,8-heptamethyl-2H-1-benzopyran-2-ethanaminium 4-methylbenzenesulfonate]
- cardiac output [6]: enhanced
- contractility [6]: enhanced
- density of β2 -receptors (β2 -receptors): further increased the density of β2 -receptors
- Relative PC50 (human α1 Pi): 4.5 ± 1 μM/μg leukocyte protein
- inactivation of α1 Pi (human α1 Pi): antagonized
- IC50 [1, 8]: 28 µM
- oral absorption [7]: not or ally absorbed
- recovery in the feces [7]: found unchanged in the feces
- oral absorption ([7]; listed as Example 11): not orally absorbed

Compound: Cc1c(C)c2c(c(C)c1O)CCC(C)(C(=O)O)O2 (centres unmarked) [Trolox, 3,4dihydro-6-hydroxy-2,5,7,8-tetramethyl-2H-1-benzopyrane-2-carboxylic acid, reference compound]
- IC50 [4]: 105 ± 8 µM
- protection of α1 Pi (Relative PC50 column) (human α1 Pi; at 1 mM): Inactive at 1 mM
- IC50 [1, 8]: 28 µM

Compound: Cc1c(C)c2c(c(C)c1O)CCC(C)(CC[N+](C)(C)C)O2 (racemic) [Example 1, 2-(3,4-Dihydro-6-hydroxy-2,5,7,8-tetramethyl-2H-1-benzopyran-2-yl)ethyl-N,N,N-trimethylammonium bromide]
- IC50 [4]: 138 ± 14 µM
